In patent publication US9498483B2, “2,3,5-trisubstituted thiophene compounds and uses thereof” (priority 2010, dated 2016):

How the values were obtained:
[1] = tested on: HCV replicon I389luc-ubi-neo/NS3-3′/ET in ET (Huh-lucubineo-ET) cells; assay: Replicon assay (Biological Example 2), luciferase readout; assay type: cell-based; settings: Hepatitis C virus
Summary of the method: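 EC50 values come from Hill fits of % inhibition of replicon-driven firefly luciferase, relative to no-compound wells. Compounds were serially diluted (10 points, 3-fold, 0.1 nM–50 μM final, 0.5% DMSO) onto ET replicon cells and read after 48 h.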

HCV polymerase = molecular target: T1, HCV polymerase (Hepatitis C virus genotype 1b, UniProt Q9WMX2); assay: Polymerase assay of Biological Example 1 (IC50 values of Table 3); assay type: biochemical; settings: IC50 values of Table 3, polymerase assay of Biological Example 1; read-out: NS5B-enzyme3
T1 construct: (His)6 (C); made in house; host or cells: XL-1 cells (E. coli, by own knowledge)

[2] = ET cells, luciferase activity 48 hours after compound

Row | Compound | IC50 ([1]; between 100 nM and 5.0 uM) | IC50 (HCV polymerase) | IC50 [1, 2]
1 | O=C(O)c1sc(-c2ccccc2)cc1N1C(=O)CN(S(=O)(=O)C2CCCC2)CC1C1CCCCC1 (stereo not shown) [Compound 42, 3-(2-Cyclohexyl-4-cyclopentanesulfonyl-6-oxo-piperazin-1-yl)-5-phenyl-thiophene-2-carboxylic acid] | 100 to 5000 nM | 148 nM | –
2 | CC(C)(C)C#Cc1cc(N2C(=O)[C@@H](CCO)OC[C@H]2C2CCCCC2)c(C(=O)O)s1 [Compound 8, 3-[(2R,5R)-5-Cyclohexyl-2-(2-hydroxy-ethyl)-3-oxo-morpholin-4-yl]-5-(3,3-dimethyl-but-1-ynyl)-thiophene-2-carboxylic acid] | – | 1 nM | ≤ 100 nM
3 | CC(C)(C)C#Cc1cc(N2C(=O)[C@H](CC(O)CO)OC[C@H]2C2CCCCC2)c(C(=O)O)s1 (stereo partly drawn) [Compound 331, 3-[(2S,5R)-5-Cyclohexyl-2-(2,3 dihydroxy-propyl)-3-oxo-morpholin-4-yl]-5-(3,3-dimethyl-but-1-ynyl)-thiophene-2 carboxylic acid] | 100 to 5000 nM | 8 nM | –
4 | O=C(O)c1sc(-c2ccc(C(F)(F)F)cc2)cc1N1C(=O)CCCC1C1CCCCC1 (stereo not shown) [Compound 117, 3-(2-Cyclohexyl-6-oxo-piperidin-1-yl)-5-(4-trifluoromethyl-phenyl)-thiophene-2-carboxylic acid] | – | 739 nM | ≥ 5000 nM
5 | O=C(O)c1sc(-c2ccccc2)cc1N1C(=O)CN(Cc2ccc(N3CCCC3=O)cc2)C[C@H]1C1CCCCC1 [Compound 262, 3-{(R)-2-Cyclohexyl-6-oxo-4-[4-(2-oxo-pyrrolidin-1-yl)-benzyl]-piperazin-1-yl}-5-phenyl-thiophene-2-carboxylic acid] | 100 to 5000 nM | 25 nM | –
6 | Cc1nccc(-c2cccc(S(=O)(=O)N3CC(=O)N(c4cc(-c5ccccc5)sc4C(=O)O)C(C4CCCCC4)C3)c2)n1 (stereo not shown) [Compound 63, 3-{2-Cyclohexyl-4-[3-(2-methyl-pyrimidin-4-yl)-benzenesulfonyl]-6-oxo-piperazin-1-yl}-5-phenyl-thiophene-2-carboxylic acid] | 100 to 5000 nM | 42 nM | –
7 | Cc1ccc(-c2cc(N3C(=O)C(C)(O)CCC3C3CCCCC3)c(C(=O)O)s2)cc1 (stereo not shown) [Compound 324, 3-(6-Cyclohexyl-3-hydroxy-3-methyl-2-oxo-piperidin-1-yl)-5-p-tolyl-thiophene-2-carboxylic acid] | 100 to 5000 nM | 85 nM | –
8 | O=C(O)c1sc(-c2ccccc2)cc1N1C(=O)CN(S(=O)(=O)c2ccc(-n3cccn3)cc2)CC1C1CCCCC1 (stereo not shown) [Compound 101, 3-[2-Cyclohexyl-6-oxo-4-(4-pyrazol-1-yl-benzenesulfonyl)-piperazin-1-yl]-5-phenyl-thiophene-2-carboxylic acid] | 100 to 5000 nM | 11 nM | –
9 | O=C(O)c1sc(-c2ccccc2)cc1N1C(=O)CN(S(=O)(=O)c2ccc(-c3ccccc3)nc2)C[C@H]1C1CCCCC1 [Compound 178, 3-[(R)-2-Cyclohexyl-6-oxo-4-(6-phenyl-pyridine-3-sulfonyl)-piperazin-1-yl]-5-phenyl-thiophene-2-carboxylic acid] | 100 to 5000 nM | 1 nM | –
10 | O=C(O)c1sc(-c2ccccc2)cc1N1C(=O)CN(S(=O)(=O)c2ccc(N3CCOCC3)nc2)C[C@H]1C1CCCCC1 [Compound 184, 3-[(R)-2-Cyclohexyl-4-(6-morpholin-4-yl-pyridine-3-sulfonyl)-6-oxo-piperazin-1-yl]-5-phenyl-thiophene-2-carboxylic acid] | – | 1.7 nM | ≤ 100 nM
11 | CC(C)(C)C#Cc1cc(N2C(=O)CN(S(=O)(=O)c3cccc(C#N)c3)C[C@H]2C2CCCCC2)c(C(=O)O)s1 [Compound 259, 3-[(R)-4-(3-Cyano-benzenesulfonyl)-2-cyclohexyl-6-oxo-piperazin-1-yl]-5-(3,3-dimethyl-but-1-ynyl)-thiophene-2-carboxylic acid] | 100 to 5000 nM | 7 nM | –
12 | CC(C)(C)OC(=O)NCC1CCN(c2ccc(S(=O)(=O)N3CC(=O)N(c4cc(-c5ccccc5)sc4C(=O)O)[C@H](C4CCCCC4)C3)cn2)CC1 [Compound 149, 3-{(R)-4-[4-(tert-Butoxycarbonyl-amino-methyl)-3,4,5,6-tetrahydro-2H-[1,2′]bipyridinyl-5′-sulfonyl]-2-cyclohexyl-6-oxo-piperazin-1-yl}-5-phenyl-thiophene-2-carboxylic acid] | – | 3 nM | ≤ 100 nM
13 | CC(=O)Nc1ccc(S(=O)(=O)N2CC(=O)N(c3cc(-c4ccccc4)sc3C(=O)O)C(C3CCCCC3)C2)cc1 (stereo not shown) [Compound 50, 3-[4-(4-Acetylamino-benzenesulfonyl)-2-cyclohexyl-6-oxo-piperazin-1-yl]-5-phenyl-thiophene-2-carboxylic acid] | 100 to 5000 nM | 7 nM | –
14 | CC(C)(C)C#Cc1cc(N2C(=O)CN(S(=O)(=O)c3c[nH]cn3)C[C@H]2C2CCCCC2)c(C(=O)O)s1 [Compound 247, 3-[(R)-2-Cyclohexyl-4-(1H-imidazole-4-sulfonyl)-6-oxo-piperazin-1-yl]-5-(3,3-dimethyl-but-1-ynyl)-thiophene-2-carboxylic acid] | – | 2 nM | ≤ 100 nM
15 | CC(C)(C)OC(=O)N[C@H]1CCN(c2ccc(S(=O)(=O)N3CC(=O)N(c4cc(-c5ccccc5)sc4C(=O)O)[C@H](C4CCCCC4)C3)cn2)C1 [Compound 165, 3-{(R)-4-[6-((S)-3-tert-Butoxycarbonylamino-pyrrolidin-1-yl)-pyridine-3-sulfonyl]-2-cyclohexyl-6-oxo-piperazin-1-yl}-5-phenyl-thiophene-2-carboxylic acid] | – | 2 nM | ≤ 100 nM
16 | Cc1ccc(-c2cc(N3C(=O)CN(S(=O)(=O)c4cnc(C)c(C)c4)C[C@H]3C3CCCCC3)c(C(=O)O)s2)cc1 [Compound 305, 3-[(R)-2-Cyclohexyl-4-(5,6-dimethyl-pyridine-3-sulfonyl)-6-oxo-piperazin-1-yl]-5-p-tolyl-thiophene-2-carboxylic acid] | – | 4 nM | ≤ 100 nM
17 | CC(C)(C)C#Cc1cc(N2C(=O)CN(S(=O)(=O)c3ccc(F)cc3F)C[C@H]2C2CCCCC2)c(C(=O)O)s1 [Compound 281, 3-[(R)-2-Cyclohexyl-4-(2,4-difluoro-benzenesulfonyl)-6-oxo-piperazin-1-yl]-5-(3,3-dimethyl-but-1-ynyl)-thiophene-2-carboxylic acid] | – | 3 nM | ≤ 100 nM
18 | Cn1cc(-c2ccc(S(=O)(=O)N3CC(=O)N(c4cc(-c5ccccc5)sc4C(=O)O)[C@H](C4CCCCC4)C3)cn2)cn1 [Compound 222, 3-{(R)-2-Cyclohexyl-4-[6-(1-methyl-1H-pyrazol-4-yl)-pyridine-3-sulfonyl]-6-oxo-piperazin-1-yl}-5-phenyl-thiophene-2-carboxylic acid] | – | 2 nM | ≤ 100 nM
19 | CC(C)(C)C#Cc1cc(N2C(=O)[C@@H](CCCO)OC[C@H]2C2CCCCC2)c(C(=O)O)s1 (single isomer, unassigned) [Compound 3] | – | 4 nM | ≤ 100 nM
20 | O=C(O)c1sc(-c2ccccc2)cc1N1C(=O)CN(S(=O)(=O)c2ccc(N3CC[C@@H](O)C3)nc2)CC1C1CCCCC1 (stereo partly drawn) [Compound 123, 3-{2-Cyclohexyl-4-[6-((R)-3-hydroxy-pyrrolidin-1-yl)-pyridine-3-sulfonyl]-6-oxo-piperazin-1-yl}-5-phenyl-thiophene-2-carboxylic acid] | – | 2 nM | ≤ 100 nM
21 | CN(C)C1CCN(c2ccc(S(=O)(=O)N3CC(=O)N(c4cc(-c5ccccc5)sc4C(=O)O)[C@H](C4CCCCC4)C3)cn2)CC1 [Compound 147, 3-[(R)-2-Cyclohexyl-4-(4-dimethylamino-3,4,5,6-tetrahydro-2H-[1,2′]bipyridinyl-5′-sulfonyl)-6-oxo-piperazin-1-yl]-5-phenyl-thiophene-2-carboxylic acid] | – | 1 nM | ≤ 100 nM
22 | O=C(O)c1sc(-c2ccccc2)cc1N1C(=O)CN(S(=O)(=O)c2ccc(NC3CCOCC3)nc2)C[C@H]1C1CCCCC1 [Compound 194, 3-{(R)-2-Cyclohexyl-6-oxo-4-[6-(tetrahydro-pyran-4-ylamino)-pyridine-3-sulfonyl]-piperazin-1-yl}-5-phenyl-thiophene-2-carboxylic acid] | – | 2 nM | ≤ 100 nM
23 | CC(C)(C)OC(=O)N[C@@H]1CCN(c2ccc(S(=O)(=O)N3CC(=O)N(c4cc(-c5ccccc5)sc4C(=O)O)[C@H](C4CCCCC4)C3)cn2)C1 [Compound 146, 3-{(R)-4-[6-((R)-3-tert-Butoxycarbonyl-amino-pyrrolidin-1-yl)-pyridine-3-sulfonyl]-2-cyclohexyl-6-oxo-piperazin-1-yl}-5-phenyl-thiophene-2-carboxylic acid] | – | 2 nM | ≤ 100 nM
24 | CN(C)C1CCCN(c2ccc(S(=O)(=O)N3CC(=O)N(c4cc(-c5ccccc5)sc4C(=O)O)[C@H](C4CCCCC4)C3)cn2)C1 (stereo partly drawn) [Compound 155, 3-[(R)-2-Cyclohexyl-4-(3-dimethylamino-3,4,5,6-tetrahydro-2H-[1,2′]bipyridinyl-5′-sulfonyl)-6-oxo-piperazin-1-yl]-5-phenyl-thiophene-2-carboxylic acid] | – | 3 nM | ≤ 100 nM
25 | CC1(C)CCN(c2ccc(S(=O)(=O)N3CC(=O)N(c4cc(-c5ccc(Cl)cc5)sc4C(=O)O)[C@H](C4CCCCC4)C3)cn2)C1 [Compound 292, 5-(4-Chloro-phenyl)-3-{(R)-2-cyclohexyl-4-[6-(3,3-dimethyl-pyrrolidin-1-yl)-pyridine-3-sulfonyl]-6-oxo-piperazin-1-yl}-thiophene-2-carboxylic acid] | – | 2.3 nM | ≤ 100 nM
26 | CC(C)Nc1ccc(S(=O)(=O)N2CC(=O)N(c3cc(-c4ccccc4)sc3C(=O)O)C(C3CCCCC3)C2)cn1 (stereo not shown) [Compound 85, 3-[2-Cyclohexyl-4-(6-isopropylamino-pyridine-3-sulfonyl)-6-oxo-piperazin-1-yl]-5-phenyl-thiophene-2-carboxylic acid] | – | 2 nM | ≤ 100 nM
